Type in all cases: cell-based
For experiment [1], the system named is red blood cells (RBCs). In words: Localisation of biotin to RBC surface by conjugation with avidin ALEXAFLUOR (fluorescence microscopy). Also noted: key to fluorescent signal intensity grade: 1 (low); 2 (moderate); 3 (bright); 4 (very bright). The protocol: (§1) The use of aqueous solutions of the construct designated Biotin-S3-S4-S2-chol (III) and the construct designated Biotin-S3-S4-S5-DOPE (IV) in the localisation of biotin (F) to cell surfaces was also compared. Solutions of the two constructs were prepared at substantially equimolar concentrations. The use of the solutions was assessed across a concentration range from 0 to 500 μM (0.5 mM). A 0.5 mM solution of the construct designated Biotin-S3-S4-S2-chol (III) was prepared by dissolving 0.4 mg of the construct in 514 μL of PBS. […] A 0.5 mM stock solution of the construct designated Biotin-S3-S4-S5-DOPE (IV) was prepared by dissolving 2 mg of the construct in 1942 μL of phosphate buffered saline (PBS). Each 0.5 mM solution was warmed to 37° C. for 10 minutes, vortexed and sonicated for 30 seconds to ensure complete dissolution of the construct in the aqueous medium. A dilution series was prepared for each construct to provide a total volume of 100 μL at each of the following concentrations: […]. Equal volumes (40 μL) of packed, washed red blood cells (RBCs) and solutions of constructs at different concentrations were mixed in a glass kimble tube. The tubes were incubated at 37° C. for 20 minutes in a water bath with periodic (3 x) agitation. The incubated cells were washed 3× with PBS before being resuspended in a cell preservative (CELPRESOL™) for storage at 4° C. overnight.
(§2) Two equal volumes were taken from each tube and centrifuged (300×g for 2 minutes) to provide two equivalent packed cells volumes for further evaluation. One of each pair of equivalent packed cell volumes was evaluated for localisation of the biofunctional moiety biotin to the surface of the RBCs by conjugation with avidin ALEXAFLUOR™. One of each pair of the equivalent packed cell volumes was evaluated for localisation of the biofunctional moiety biotin to the surface of the RBCs by conjugation to avidinylated beads (DYNABEADS™ M-280).
Conjugation with avidin ALEXAFLUOR™ was evaluated as described in the publication of Oliver et al (2011). An aliquot containing 0.02 mg avidin ALEXAFLUOR™ was mixed with a volume ([…]) of PBS containing BSA to provide a 0.1 mg/mL solution. Equal volumes 20 μL of packed RBCs and the solution of avidin ALEXAFLUOR™ were mixed and incubated at 37° C. for 30 minutes. The cells were then washed 3× with PBS before placing a drop (10 μL) on a glass microscope slide for fluorescent microscopy (WIB filter at 400× magnification). Cells were graded for fluorescence intensity over two micrograph fields of view. Grades determined via the eye piece were correlated with the corresponding photomicrographs (1.9 sec exposure). Grades were assigned according to the following scale: 1 (low), 2 (moderate), 3 (bright) and 4 (very bright). The morphology of the cells was also recorded (“normal” or “poiked”).

For experiment [2], the system named is red blood cells (RBCs). In words: Localisation of biotin to RBC surface by attachment of avidinylated beads (DYNABEADS M-280). The protocol:
as §1, with “The tubes were incubated at 37° C. for 20 minutes in a water bath with periodic (3 x) agitation. The incubated cells were washed 3× with PBS before being resuspended in a cell preservative (CELPRESOL™) for storage at 4° C. overnight.” left out
as §2
Conjugation with avidinylated beads (DYNABEADS™ M-280) was performed. […] The attachment of beads to cells was scored at 400× and 800× magnification on a compound microscope. An estimate of the number of beads and the presence of cell clusters was recorded for each group and compared with a negative control.

The test system of experiment [3] is O group red blood cells (RBCs). In words: Serology of kodecytes with monoclonal preparations. Also noted: scale not given here. To be noted: kodecytes prepared at 200 μg/mL construct. The protocol: The use of aqueous solutions of the construct designated Atri-S1-chol (I), the construct designated Atri-S1-S5-DOPE (V) and the construct designated Atri-S1-S5-S4-S5-DOPE (VI) in the localisation of Atri (F) to cell surfaces was also compared. (The constructs designated Atri-S1-S5-DOPE (V) and […] (VI) (FIG. 11) were prepared according to Bovin et al (2005) and Bovin et al (2009)). Volumes (40 μL) of packed, washed O group red blood cells (RBCs) were resuspended in equal volumes of solutions of each of the three constructs at a concentration of 200 μg/mL in PBS. The resuspended RBCs were incubated at room temperature for 4 hours prior to storage at 4° C. overnight. Serology was performed as described by Bovin et al (2005) using a range of monoclonal preparations and sera.

With `CCCCCCCC/C=C\CCCCCCCC(=O)OCC(COP(=O)([O-])OCCNC(=O)CCCCC(=O)NCC(=O)NCC(=O)N(CC(=O)[O-])CC(=O)NCC(=O)NCC(=O)N(CC(=O)[O-])CC(=O)NCCNC(=O)CN(CC(=O)[O-])C(=O)CNC(=O)CNC(=O)CN(CC(=O)[O-])C(=O)CNC(=O)CNC(=O)CCCC[C@@H]1SC[C@@H]2NC(=O)N[C@@H]21)OC(=O)CCCCCCC/C=C\CCCCCCCC.[Na+].[Na+].[Na+].[Na+].[Na+]` (some centres unmarked) [Biotin-S3-S4-S5-DOPE (IV), reference compound], in the experiment with red blood cells (RBCs) [1] (100 and 500 μM), the “staining at higher concentrations” value was “poor staining”. The “fluorescent signal intensity grade” value in the experiment with red blood cells (RBCs) [1] (constructs at concentrations of 10 and 25 μM, avidin ALEXAFLUOR) is listed as 2. Moreover, in the experiment with red blood cells (RBCs) [2], the “attachment of avidinylated beads, comparison of the two constructs” value is listed as “comparable results”.
`CC(=O)NC1C(OC2C(O)C(CO)OC(OCCCNC(=O)OC3CCC4(C)C(=CCC5C4CCC4(C)C(C(C)CCCC(C)C)CCC54)C3)C2OC2OC(C)C(O)C(O)C2O)OC(CO)C(O)C1O` (centres unmarked) [I]: the Serology score in experiment [3] (Anti-A (ABO1) Diagast), in experiment [3] (Anti-A ALBAclone), in experiment [3] (Anti-A BRG), in experiment [3] (Anti-A Biotest), in experiment [3] (Anti-A CSL Epiclone) and in experiment [3] (Anti-A CSL) was 0 each time. In addition, the Serology score in experiment [3] (Anti-A Diagast), in experiment [3] (Anti-A Diagnostics Scotland), in experiment [3] (Anti-A Lorne), in experiment [3] (Anti-A Ortho-BioClone), in experiment [3] (Anti-A Span) and in experiment [3] (Anti-A ortho) was 0 in each case. The Serology score is given as 0 in experiment [3] (Anti-A, B CSL); 0 in experiment [3] (Anti-A, B Diagast); 0 in experiment [3] (Anti-A, B Diagnostics Scotland); 0 in experiment [3] (Anti-A/B ALBAclone); 0 in experiment [3] (Anti-A/B CSL Epiclone); 0 in experiment [3] (Anti-A/B Dominion (Novaclone)). The Serology score in experiment [3] (Anti-B (ABO2) Diagast), in experiment [3] (Anti-B ALBAclone), in experiment [3] (Anti-B Biotec), in experiment [3] (Anti-B CSL Epiclone), in experiment [3] (Anti-B CSL) and in experiment [3] (Anti-B Diagast) was 0 in each case. The Serology score in experiment [3] (Anti-B Diagnostics Scotland), in experiment [3] (Anti-B Dominion (Novaclone)), in experiment [3] (Anti-B Gama), in experiment [3] (Anti-B Immucor), in experiment [3] (Anti-B Millipore) and in experiment [3] (Anti-B Ortho-BioClone) was 0 each time. For the same compound, the Serology score in experiment [3] (Anti-B Ortho-MoltenClone), in experiment [3] (Anti-B Span), in experiment [3] (Anti-B ortho) and in experiment [3] (Diagast Anti-A/B (ABO3)) was 0 throughout.
With `CCCCCCCCC=CCCCCCCCC(=O)OCC(COP(=O)([O-])OCCNC(=O)CCCCC(=O)NCCCOC1OC(CO)C(O)C(OC2OC(CO)C(O)C(O)C2NC(C)=O)C1OC1OC(C)C(O)C(O)C1O)OC(=O)CCCCCCCC=CCCCCCCCC.[Na+]` (centres unmarked) [V, reference compound], the Serology score in experiment [3] (Anti-A, B Diagast) came out at 0; in experiment [3] (Anti-B (ABO2) Diagast) it was 0; in experiment [3] (Anti-B ALBAclone), 0; in experiment [3] (Anti-B Biotec) it was 0; in experiment [3] (Anti-B CSL Epiclone), 0; in experiment [3] (Anti-B CSL), 0. The Serology score in experiment [3] (Anti-B Diagast), in experiment [3] (Anti-B Diagnostics Scotland), in experiment [3] (Anti-B Dominion (Novaclone)), in experiment [3] (Anti-B Gama), in experiment [3] (Anti-B Immucor) and in experiment [3] (Anti-B Millipore) was 0 in each case. In addition, the Serology score in experiment [3] (Anti-B Ortho-BioClone), in experiment [3] (Anti-B Ortho-MoltenClone), in experiment [3] (Anti-B Span) and in experiment [3] (Anti-B ortho) was 0 in each case.
Take `CCCCCCCC/C=C\CCCCCCCC(=O)OCC(COP(=O)([O-])OCCNC(=O)CCCCC(=O)NCC(=O)NCC(=O)N(CC(=O)[O-])CC(=O)NCC(=O)NCC(=O)N(CC(=O)[O-])CC(=O)NCCNC(=O)CN(CC(=O)[O-])C(=O)CNC(=O)CNC(=O)CN(CC(=O)[O-])C(=O)CNC(=O)CNC(=O)CCCCC(=O)NCCCO[C@@H]1O[C@H](CO)[C@H](O)[C@H](O[C@H]2O[C@H](CO)[C@H](O)[C@H](O)[C@H]2NC(C)=O)[C@H]1O[C@@H]1O[C@@H](C)[C@@H](O)[C@@H](O)[C@@H]1O)OC(=O)CCCCCCC/C=C\CCCCCCCC.[Na+].[Na+].[Na+].[Na+].[Na+]` (some centres unmarked) [VI, reference compound]: the Serology score in experiment [3] (Anti-B (ABO2) Diagast), in experiment [3] (Anti-B ALBAclone), in experiment [3] (Anti-B Biotec), in experiment [3] (Anti-B CSL Epiclone), in experiment [3] (Anti-B CSL) and in experiment [3] (Anti-B Diagast) was 0 throughout. Further, the Serology score in experiment [3] (Anti-B Diagnostics Scotland), in experiment [3] (Anti-B Dominion (Novaclone)), in experiment [3] (Anti-B Gama), in experiment [3] (Anti-B Immucor), in experiment [3] (Anti-B Millipore) and in experiment [3] (Anti-B Ortho-BioClone) was 0 in each case. For the same compound, the Serology score in experiment [3] (Anti-B Ortho-MoltenClone), in experiment [3] (Anti-B Span) and in experiment [3] (Anti-B ortho) was 0 throughout.

For the origin of these results see patent US20140004499A1, “BIOSURFACE ENGINEERING” (priority 2011, published 2014).
